Data from patent publication US20070212408A1, “Stable Pharmaceutical Composition Containing Benzimidazole Derivatives and Method of Manufacturing the Same” (priority 2004, published 2007).

Tests used:
[1] = Storage stability test of inclusion complexes containing lansoprazole (Test Example 1), HPLC content; type: physicochemical; conditions: 60° C., 75% RH
[2] = Storage stability test of inclusion complexes containing lansoprazole (Test Example 3), HPLC content; type: physicochemical; conditions: 60° C., 75% RH, relative to initial content

For `Cc1c(OCC(F)(F)F)ccnc1C[S+]([O-])c1nc2ccccc2[nH]1` (stereo not drawn) [lansoprazole], the “Content after 1 wk (%)” value ([1]; 1 wk, relative to initial content, HPLC) was 96.62%, the “Content after 2 wk (%)” value ([1]; 2 wk, relative to initial content, HPLC) was 76.88% and the “Color Change after 4 wk” value ([1]; 4 wk) was “Dark brown”. The “Content after 4 wk (%)” value ([1]; 4 wk, relative to initial content, HPLC) was “Not detected”, the “Content after 1 wk (%)” value ([2]; 1 wk) was 96.62% and the “Content after 2 wk (%)” value ([2]; 2 wk) was 76.88%.
